One test concerns the target Phospholipase A2 (Homo sapiens, UniProt P04054). The class given is functional.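 Note: confirmatory dose-response counterscreen on phospholipase A2, testing hits that came from an ultra-high-throughput screen for ATG4B inhibitors.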
For another test, the target named is T1, Protein RecA (Mycobacterium tuberculosis, UniProt P9WHJ3).
T1 sequence (P9WHJ3 whole entry): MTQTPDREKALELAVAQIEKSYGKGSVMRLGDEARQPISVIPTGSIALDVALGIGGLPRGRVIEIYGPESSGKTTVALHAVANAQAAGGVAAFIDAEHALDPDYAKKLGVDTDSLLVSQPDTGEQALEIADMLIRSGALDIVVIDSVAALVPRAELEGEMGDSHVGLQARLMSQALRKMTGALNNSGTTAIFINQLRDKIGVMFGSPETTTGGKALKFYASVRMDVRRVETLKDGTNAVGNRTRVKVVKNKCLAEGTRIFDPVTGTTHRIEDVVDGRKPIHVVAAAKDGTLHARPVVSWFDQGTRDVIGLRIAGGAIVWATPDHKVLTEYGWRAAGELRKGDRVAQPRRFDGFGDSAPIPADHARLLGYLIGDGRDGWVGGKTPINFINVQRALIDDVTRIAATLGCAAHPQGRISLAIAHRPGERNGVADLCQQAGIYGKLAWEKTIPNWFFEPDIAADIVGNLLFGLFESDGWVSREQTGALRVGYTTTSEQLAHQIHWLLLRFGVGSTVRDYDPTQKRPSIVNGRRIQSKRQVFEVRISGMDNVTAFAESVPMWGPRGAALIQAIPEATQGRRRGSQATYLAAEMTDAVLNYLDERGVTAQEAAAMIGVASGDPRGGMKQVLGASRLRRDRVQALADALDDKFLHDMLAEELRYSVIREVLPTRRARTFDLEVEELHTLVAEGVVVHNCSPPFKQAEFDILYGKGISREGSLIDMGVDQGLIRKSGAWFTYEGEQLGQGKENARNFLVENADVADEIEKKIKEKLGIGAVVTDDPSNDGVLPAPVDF
Nature of the test: GFP-RecA MOA-DTT Measured in Biochemical System Using Plate Reader - 2047-05_Inhibitor_Dose_DryPowder_Activity. [Related pubchem assays (depositor defined):AID2223]. Details: species or system Mycobacterium tuberculosis H37Rv.

Test [1] in a line: Intein inhibitors as potential Tuberculosis drugs, a cytotoxicity screen. [Related pubchem assays (depositor defined):AID2221, AID2223, AID434968, AID435010, AID449749, AID449750, AID489010]. In kind it is functional.
For test [2], the target named is Dual specificity tyrosine-phosphorylation-regulated kinase 1A (Rattus norvegicus, UniProt Q63470). In kind it is biochemical, Homo sapiens.
Test [3] has as its target Homeodomain-interacting protein kinase 4 (Homo sapiens, UniProt Q8NE63). In kind it is functional.
The target of test [4] is cAMP-dependent protein kinase catalytic subunit PRKX (Homo sapiens, UniProt P51817). The class given is functional.
Sequence of cAMP-dependent protein kinase catalytic subunit PRKX (P51817 whole entry): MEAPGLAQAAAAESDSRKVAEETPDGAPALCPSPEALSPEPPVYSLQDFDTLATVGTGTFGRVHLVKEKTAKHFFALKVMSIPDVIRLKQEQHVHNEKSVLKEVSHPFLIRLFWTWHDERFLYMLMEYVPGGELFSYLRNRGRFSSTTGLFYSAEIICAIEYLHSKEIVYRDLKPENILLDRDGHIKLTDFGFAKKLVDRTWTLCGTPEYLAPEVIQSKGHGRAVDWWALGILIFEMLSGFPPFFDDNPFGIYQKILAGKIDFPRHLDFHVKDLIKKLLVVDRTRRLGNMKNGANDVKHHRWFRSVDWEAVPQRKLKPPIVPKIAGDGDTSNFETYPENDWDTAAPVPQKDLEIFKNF
Test [5] deals with Tyrosine-protein kinase Blk (Homo sapiens, UniProt P51451). In kind it is functional.
For test [6], the target named is cAMP-dependent protein kinase catalytic subunit alpha (Homo sapiens, UniProt P17612). The class given is functional.
The target in the next test is Ephrin type-A receptor 2 (Homo sapiens, UniProt P29317). In kind it is functional.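 Note: EPHA2 tested as one member of a kinome-wide kinase panel.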
Sequence of Ephrin type-A receptor 2 (P29317 whole entry): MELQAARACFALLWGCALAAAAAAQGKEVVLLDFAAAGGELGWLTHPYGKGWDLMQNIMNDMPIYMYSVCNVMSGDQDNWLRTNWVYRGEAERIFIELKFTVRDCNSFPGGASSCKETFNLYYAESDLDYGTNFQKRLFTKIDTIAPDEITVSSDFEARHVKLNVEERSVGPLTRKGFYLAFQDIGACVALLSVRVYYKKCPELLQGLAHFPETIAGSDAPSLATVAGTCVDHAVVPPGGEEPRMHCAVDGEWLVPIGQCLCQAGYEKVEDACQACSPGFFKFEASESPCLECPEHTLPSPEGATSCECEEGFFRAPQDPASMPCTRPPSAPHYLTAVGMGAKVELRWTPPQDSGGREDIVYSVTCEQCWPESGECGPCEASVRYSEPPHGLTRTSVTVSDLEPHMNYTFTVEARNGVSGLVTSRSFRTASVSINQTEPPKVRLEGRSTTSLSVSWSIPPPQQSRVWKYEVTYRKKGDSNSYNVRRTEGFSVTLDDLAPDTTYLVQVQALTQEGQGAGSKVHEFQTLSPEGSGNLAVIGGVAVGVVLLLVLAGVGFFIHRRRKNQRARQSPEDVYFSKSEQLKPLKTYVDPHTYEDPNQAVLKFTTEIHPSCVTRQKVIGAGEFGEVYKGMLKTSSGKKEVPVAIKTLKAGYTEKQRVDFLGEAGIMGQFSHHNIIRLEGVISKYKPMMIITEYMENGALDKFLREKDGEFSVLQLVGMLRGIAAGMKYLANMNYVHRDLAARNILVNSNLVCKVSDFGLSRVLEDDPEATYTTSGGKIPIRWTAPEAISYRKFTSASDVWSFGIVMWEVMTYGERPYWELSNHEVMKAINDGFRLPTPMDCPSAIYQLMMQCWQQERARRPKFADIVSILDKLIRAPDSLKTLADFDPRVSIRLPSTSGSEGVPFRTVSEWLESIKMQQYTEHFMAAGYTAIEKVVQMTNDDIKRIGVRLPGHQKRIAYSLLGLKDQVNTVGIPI
The target of test [7] is BDNF/NT-3 growth factors receptor (Homo sapiens, UniProt Q16620). In kind it is functional.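 Note: NTRK2 measured as one member of a broad kinome-wide kinase profiling panel.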
Sequence of BDNF/NT-3 growth factors receptor (Q16620 whole entry): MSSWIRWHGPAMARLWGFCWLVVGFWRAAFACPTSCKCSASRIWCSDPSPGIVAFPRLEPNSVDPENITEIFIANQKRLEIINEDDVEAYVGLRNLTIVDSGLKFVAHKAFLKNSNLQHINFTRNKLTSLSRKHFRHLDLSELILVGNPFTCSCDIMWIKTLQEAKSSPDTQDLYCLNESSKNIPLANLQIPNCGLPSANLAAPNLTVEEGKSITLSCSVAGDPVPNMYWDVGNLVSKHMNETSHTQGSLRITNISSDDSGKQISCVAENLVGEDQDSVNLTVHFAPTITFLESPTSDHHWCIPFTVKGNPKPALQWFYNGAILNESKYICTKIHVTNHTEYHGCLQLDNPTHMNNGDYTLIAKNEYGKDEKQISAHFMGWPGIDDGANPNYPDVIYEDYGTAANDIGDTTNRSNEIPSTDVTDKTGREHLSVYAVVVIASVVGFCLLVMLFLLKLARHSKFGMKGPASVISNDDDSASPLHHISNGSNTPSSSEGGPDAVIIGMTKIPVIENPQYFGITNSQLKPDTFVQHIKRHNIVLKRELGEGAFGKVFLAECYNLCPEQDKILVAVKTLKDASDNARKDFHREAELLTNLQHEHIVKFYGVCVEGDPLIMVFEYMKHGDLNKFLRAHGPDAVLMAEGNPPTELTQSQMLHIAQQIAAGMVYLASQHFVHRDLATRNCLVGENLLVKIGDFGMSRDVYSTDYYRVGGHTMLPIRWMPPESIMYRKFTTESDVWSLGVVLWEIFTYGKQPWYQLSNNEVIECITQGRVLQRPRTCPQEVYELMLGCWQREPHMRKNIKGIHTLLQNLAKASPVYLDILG
For test [8], the target named is Mitogen-activated protein kinase kinase kinase kinase 4 (Homo sapiens, UniProt O95819). The class given is functional.
Sequence of Mitogen-activated protein kinase kinase kinase kinase 4 (O95819 whole entry): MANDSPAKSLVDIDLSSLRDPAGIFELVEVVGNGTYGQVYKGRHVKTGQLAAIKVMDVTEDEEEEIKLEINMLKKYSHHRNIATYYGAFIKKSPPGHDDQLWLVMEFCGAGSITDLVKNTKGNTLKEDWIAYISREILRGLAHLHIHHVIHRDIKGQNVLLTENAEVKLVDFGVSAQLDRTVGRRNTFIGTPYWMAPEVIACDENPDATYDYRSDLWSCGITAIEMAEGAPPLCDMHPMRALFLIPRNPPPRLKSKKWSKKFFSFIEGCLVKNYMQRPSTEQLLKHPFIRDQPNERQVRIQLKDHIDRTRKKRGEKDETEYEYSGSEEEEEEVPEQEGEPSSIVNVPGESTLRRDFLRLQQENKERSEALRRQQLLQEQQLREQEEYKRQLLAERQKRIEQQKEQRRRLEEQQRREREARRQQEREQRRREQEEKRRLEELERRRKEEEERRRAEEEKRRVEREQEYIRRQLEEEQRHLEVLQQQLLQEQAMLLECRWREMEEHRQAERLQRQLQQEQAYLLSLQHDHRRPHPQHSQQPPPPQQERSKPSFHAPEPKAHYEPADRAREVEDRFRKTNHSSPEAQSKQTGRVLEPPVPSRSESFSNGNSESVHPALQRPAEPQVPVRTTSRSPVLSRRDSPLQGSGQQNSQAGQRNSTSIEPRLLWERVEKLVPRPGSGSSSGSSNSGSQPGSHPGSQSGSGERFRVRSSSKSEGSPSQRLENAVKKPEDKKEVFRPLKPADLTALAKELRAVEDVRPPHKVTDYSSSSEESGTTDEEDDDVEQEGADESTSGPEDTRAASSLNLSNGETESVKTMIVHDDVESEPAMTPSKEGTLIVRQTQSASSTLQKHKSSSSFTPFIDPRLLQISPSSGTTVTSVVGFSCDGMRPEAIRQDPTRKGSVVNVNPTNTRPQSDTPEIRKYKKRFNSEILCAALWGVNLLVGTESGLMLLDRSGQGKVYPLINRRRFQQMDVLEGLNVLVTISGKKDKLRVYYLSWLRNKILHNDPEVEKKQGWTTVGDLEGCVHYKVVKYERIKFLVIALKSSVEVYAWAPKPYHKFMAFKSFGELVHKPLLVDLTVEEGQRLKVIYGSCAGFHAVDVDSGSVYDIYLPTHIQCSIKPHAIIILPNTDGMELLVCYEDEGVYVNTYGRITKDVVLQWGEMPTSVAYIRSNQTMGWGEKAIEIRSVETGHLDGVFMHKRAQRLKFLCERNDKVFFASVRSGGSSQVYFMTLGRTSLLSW
Test [9] concerns the target Casein kinase II subunit alpha (Homo sapiens, UniProt P68400). The class given is functional.
For test [10], the target named is T2, Interleukin-1 receptor-associated kinase 4 (Homo sapiens, UniProt Q9NWZ3).
T2 sequence (Q9NWZ3 whole entry): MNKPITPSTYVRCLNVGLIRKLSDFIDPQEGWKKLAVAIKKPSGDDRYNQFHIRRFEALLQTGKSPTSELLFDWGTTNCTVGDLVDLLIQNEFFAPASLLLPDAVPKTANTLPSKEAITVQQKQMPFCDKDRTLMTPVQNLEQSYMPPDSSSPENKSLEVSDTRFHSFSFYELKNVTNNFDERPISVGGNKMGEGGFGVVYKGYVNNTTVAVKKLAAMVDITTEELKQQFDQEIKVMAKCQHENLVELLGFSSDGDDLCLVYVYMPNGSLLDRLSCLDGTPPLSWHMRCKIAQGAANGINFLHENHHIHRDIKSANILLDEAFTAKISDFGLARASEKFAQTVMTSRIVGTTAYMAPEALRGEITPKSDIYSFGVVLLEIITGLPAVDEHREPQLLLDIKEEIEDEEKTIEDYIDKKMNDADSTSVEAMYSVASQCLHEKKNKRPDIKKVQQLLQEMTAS
In kind it is functional.

Test [11] deals with T3, Sentrin-specific protease 8 (Homo sapiens, UniProt Q96LD8).
T3 sequence (Q96LD8 whole entry): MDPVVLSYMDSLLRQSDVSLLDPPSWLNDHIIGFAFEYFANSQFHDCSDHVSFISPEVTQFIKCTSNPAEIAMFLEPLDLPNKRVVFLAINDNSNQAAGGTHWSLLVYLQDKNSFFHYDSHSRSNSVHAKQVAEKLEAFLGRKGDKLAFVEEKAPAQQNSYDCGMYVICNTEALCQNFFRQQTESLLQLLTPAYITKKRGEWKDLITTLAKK
In kind it is functional.

Active and inactive are the calls of the source.
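Throughout, for CC50: cells exposed to compound for 72 hours before luminescence readout.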

Sequence of Phospholipase A2 (P04054 whole entry): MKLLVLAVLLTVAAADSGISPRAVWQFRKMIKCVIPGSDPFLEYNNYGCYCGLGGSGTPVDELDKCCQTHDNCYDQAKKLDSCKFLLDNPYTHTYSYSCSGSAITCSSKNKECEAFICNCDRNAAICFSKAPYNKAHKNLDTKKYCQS
Sequence of Casein kinase II subunit alpha (P68400 whole entry): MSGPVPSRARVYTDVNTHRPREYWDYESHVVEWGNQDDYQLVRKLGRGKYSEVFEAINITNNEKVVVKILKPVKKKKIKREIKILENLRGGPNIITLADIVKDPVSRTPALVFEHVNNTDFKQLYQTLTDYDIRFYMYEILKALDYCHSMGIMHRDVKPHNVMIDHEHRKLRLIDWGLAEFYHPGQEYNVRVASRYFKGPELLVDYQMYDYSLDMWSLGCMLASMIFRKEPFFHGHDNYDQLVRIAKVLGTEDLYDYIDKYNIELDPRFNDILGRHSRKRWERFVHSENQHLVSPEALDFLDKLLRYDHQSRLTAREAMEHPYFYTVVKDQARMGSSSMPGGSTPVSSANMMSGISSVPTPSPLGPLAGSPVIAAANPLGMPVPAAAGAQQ
Sequence of Homeodomain-interacting protein kinase 4 (Q8NE63 whole entry): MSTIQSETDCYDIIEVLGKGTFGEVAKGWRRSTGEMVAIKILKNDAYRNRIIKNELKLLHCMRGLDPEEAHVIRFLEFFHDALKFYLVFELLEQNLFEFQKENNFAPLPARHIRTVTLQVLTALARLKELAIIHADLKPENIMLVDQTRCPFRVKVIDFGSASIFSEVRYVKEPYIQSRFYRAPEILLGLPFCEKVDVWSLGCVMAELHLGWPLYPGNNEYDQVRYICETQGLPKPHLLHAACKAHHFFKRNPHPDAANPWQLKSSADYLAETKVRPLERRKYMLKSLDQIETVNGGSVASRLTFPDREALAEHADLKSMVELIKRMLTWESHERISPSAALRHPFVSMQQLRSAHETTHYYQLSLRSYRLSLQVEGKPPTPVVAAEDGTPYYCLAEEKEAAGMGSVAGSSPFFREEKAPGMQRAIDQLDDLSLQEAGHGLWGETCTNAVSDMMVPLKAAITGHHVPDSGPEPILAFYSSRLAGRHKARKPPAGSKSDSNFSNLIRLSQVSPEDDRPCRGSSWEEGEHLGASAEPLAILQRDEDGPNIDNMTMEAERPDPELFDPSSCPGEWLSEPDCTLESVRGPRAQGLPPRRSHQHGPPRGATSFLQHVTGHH

With `CCn1nc(/C=C/c2ccccc2)nc2c(=O)n(C)c(=O)nc1-2`, on Phospholipase A2, the IC50 was > 80 µM (inactive). The AC50 at Protein RecA was 0.065 µM (active); in test [2], 0.281 µM (active). Besides, the CC50 in test [1] was > 40 µM (active).
For `COc1cc2c(cc1Nc1nc(Nc3cccc(F)c3C(N)=O)c3cc[nH]c3n1)N(C(=O)CN(C)C)CC2`, the Ki is 6.31 µM (active) in test [3]; > 3.16 µM (inactive) in [4]; > 1.58 µM (inactive) in test [5]; > 1.26 µM (inactive) in [6]; > 3.16 µM (inactive) at Ephrin type-A receptor 2; > 3.98 µM (inactive) in test [7]. Further, the Ki in test [8] is > 5.01 µM (inactive); in test [9] it was 0.631 µM (active); in test [10], 10 µM (active).
Turning to `CC(C)c1ccc(-c2nnn(CCC(=O)O)n2)cc1`, in test [11], the IC50 was 7.27 µM (active).
